One test has as its target OXA-48 (Klebsiella pneumoniae, UniProt Q6XEC0). The test can be described thus: 1H NMR of enzymatic hydrolysis products. In kind it is biochemical.
For another test, the target named is NDM-1 (Klebsiella pneumoniae, UniProt C7C422). Description: 1H NMR of enzymatic hydrolysis products. In kind it is biochemical.

The results in this text go back to PMC7614720 (European journal of medicinal chemistry, 2021).

Sequence of NDM-1 (C7C422 29-270, looked up): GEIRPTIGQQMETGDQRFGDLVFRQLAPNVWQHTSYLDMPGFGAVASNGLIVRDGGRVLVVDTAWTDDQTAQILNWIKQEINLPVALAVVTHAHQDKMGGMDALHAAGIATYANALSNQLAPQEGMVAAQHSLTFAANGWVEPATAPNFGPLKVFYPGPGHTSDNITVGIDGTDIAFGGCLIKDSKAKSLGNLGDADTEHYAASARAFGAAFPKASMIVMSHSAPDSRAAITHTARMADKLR
Sequence of OXA-48 (Q6XEC0 23-265 limits assumed): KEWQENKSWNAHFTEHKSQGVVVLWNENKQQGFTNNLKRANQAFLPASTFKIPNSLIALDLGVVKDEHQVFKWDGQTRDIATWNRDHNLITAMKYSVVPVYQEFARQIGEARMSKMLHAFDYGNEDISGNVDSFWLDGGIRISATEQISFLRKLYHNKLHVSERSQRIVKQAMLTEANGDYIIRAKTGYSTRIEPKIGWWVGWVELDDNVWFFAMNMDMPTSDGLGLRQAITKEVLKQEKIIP

As for `C[C@@H](O)[C@H]1C(=O)N2C(C(=O)O)=C([C@H]3CCCO3)S[C@H]12` [faropenem], at OXA-48, the “1H NMR of enzymatic hydrolysis products (5 μM enzyme, 55 min)” value is “the class D SBLs OXA-10, OXA-23 and OXA-48 and the B1 MBLs NDM-1 and VIM-1”. Besides, the “1H NMR of enzymatic hydrolysis products (5 μM enzyme, 5 min)” value on NDM-1 is on record as “we subsequently studied the reaction of faropenem with other SBLs/MBLs”.
